Experiments:
Assay in all cases: pTyr-Var library bacterial peptide display kinase screen (enrichment scores)
EPHB2 kinase domain = assay type: biochemical, human; settings: sheet EPHB2; effect of variant peptide relative to its reference peptide in the pTyr-Var library screen (enrichment scores)
c-Src kinase domain = c-Src kinase domain (Homo sapiens, UniProt P12931); assay type: biochemical; settings: sheet "Src";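 note: log2 fold change in enrichment of variant over reference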
EPHB1 kinase domain = assay type: biochemical, human; settings: for Screen: sheet EPHB1, effect of the variant peptide relative to its reference peptide in the pTyr-Var library screen (enrichment scores)
Fer kinase domain = assay type: biochemical, mouse; settings: sheet "Fer"; value of the variant peptide against its reference peptide in the pTyr-Var library screen with Fer
c-Abl kinase domain = biological target: T1, c-Abl kinase domain (Mus musculus, UniProt P00520); assay type: biochemical;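 for screen: log2 fold change in enrichment of variant over reference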
T1 sequence (P00520 242-493 limits assumed): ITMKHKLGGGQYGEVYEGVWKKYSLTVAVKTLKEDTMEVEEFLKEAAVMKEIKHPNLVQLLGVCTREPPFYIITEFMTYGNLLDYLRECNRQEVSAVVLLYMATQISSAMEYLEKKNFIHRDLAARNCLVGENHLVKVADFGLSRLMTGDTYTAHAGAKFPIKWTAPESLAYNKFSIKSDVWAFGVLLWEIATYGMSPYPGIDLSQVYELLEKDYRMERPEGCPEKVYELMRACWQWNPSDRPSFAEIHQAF

[1] = variant peptide versus its reference peptide in the pTyr-Var library screen
[2] = effect of the variant peptide relative to its reference peptide in the pTyr-Var library screen
[3] = fig5-data2, sheet "Abl", Screen for the variant/reference peptide pair, pTyr-Var library
[4] = sheet "Abl", effect of variant peptide relative to its reference peptide in pTyr-Var library screen (enrichment)

## LHVKMYNFLRS [ADGRG7_Y760_R756H]
EPHB2 kinase domain
  Screen: -0.4432

## LINSVYGCSRQ [TMPRSS6_Y290_T287N]
c-Src kinase domain; [1]
  Screen: 1.631

## LITTLYISFLG [KCNQ1_Y267_G269S]
c-Src kinase domain; [2]
  Screen: -1.106

## LKDEDYLKDTV [HAUS3_Y582_I586T]
EPHB2 kinase domain
  Screen: 0.5716
EPHB1 kinase domain
  Screen: 0.8437

## LLEGKYEWQEV [CDKN1B_Y74_P69L]
Fer kinase domain
  Screen: 1.551

## LPEHPYHSRPR [NDUFA8_Y142_N140H]
EPHB2 kinase domain
  Screen: 1.643
c-Src kinase domain; [1]
  Screen: -0.5324
c-Abl kinase domain; [3]
  Screen: -0.8491

## LTVVIYVLVGR [EPHA3_Y561_I564V]
EPHB2 kinase domain
  Screen: -4.573
Fer kinase domain
  Screen: -2.144

## LVRAFYCERRW [CARD11_Y970_R975W]
EPHB2 kinase domain
  Screen: -0.93

## LWQSIYNLDAE [TNNT2_Y251_E254D]
c-Src kinase domain; [1]
  Screen: 0.02036

## MASISYDFCRV [BST2_Y6_T4I_YF]
Fer kinase domain
  Screen: -0.4486

## NHQFDYTFHWT [CSNK1A1_Y294_D297H_YF]
Fer kinase domain
  Screen: 3.7
EPHB1 kinase domain
  Screen: 1.13

## NSAFFYKTAEE [CCT6B_Y250_G247A]
c-Abl kinase domain; [3]
  Screen: 0.06962

## NTGGFYDLFGG [PTPN11_Y63_D61G_YF]
c-Src kinase domain; [1]
  Screen: -0.08944
Fer kinase domain
  Screen: 1.072

## NVSILYTASQA [CTNNA1_Y222_P219S]
c-Abl kinase domain; [3]
  Screen: -0.9911

## PADQAYSWFQH [NDST1_Y711_R709Q_YF]
c-Src kinase domain; [1]
  Screen: 1.532
Fer kinase domain
  Screen: 0.5054

## PGVNFYFQVSA [TTN_Y28166_R28168Q_YF]
c-Abl kinase domain; [4]
  Screen: -2.22

## PHMQTYEVDHN [SDHB_Y61_L65H]
EPHB2 kinase domain
  Screen: 0.7041

## PIGRKYKKVRF [F8_Y442_R437P]
c-Abl kinase domain; [3]
  Screen: 0.1866

## PLCPDYQEPSR [DDR2_Y481_R478C]
EPHB2 kinase domain
  Screen: 1.681

## PLSGEYFTLQI [TP53_Y327_D324S]
c-Src kinase domain; [1]
  Screen: -0.1322
c-Abl kinase domain; [4]
  Screen: -0.7361
EPHB1 kinase domain; sheet "EPHB1", variant seq vs reference seq, bacterial peptide display enrichment
  Screen (variant relative to reference peptide, measured in the pTyr-Var library screen): 0.4408

## PNRILYGDFQQ [MYH7_Y715_R719Q]
c-Src kinase domain; [1]
  Screen: -0.8592

## PNRILYRDFRQ [MYH7_Y715_G716R]
c-Src kinase domain; [1]
  Screen: -3.613

## PRDGEYFTLQI [TP53_Y327_L323R]
c-Src kinase domain; [1]
  Screen: -0.0193

## PSSRDYKDNIK [PIGN_Y227_H229D]
c-Abl kinase domain; [3]
  Screen: -1.292

## PVADPYDQSFE [P38A Y323]
c-Abl kinase domain; pTyr-Var library bacterial peptide display screen with c-Abl, 11-residue peptides (SITE_+/-5_AA) of annotated Abl substrate sites, sheet "Abl substrates", mean
  Enrichment score (mean): 2.375

## PVQAVYQKVVA [HBB_Y131_A130V]
c-Src kinase domain; [2]
  Screen: 1.787

## QDEHGYISLCF [HSPB1_Y133_R136L]
EPHB1 kinase domain
  Screen: 1.02

## QDLLLYQTHSE [PKHD1_Y255_F253L]
EPHB2 kinase domain
  Screen: 1.452
c-Src kinase domain; [1]
  Screen: 0.9307
Fer kinase domain
  Screen: 1.348

## QHVPDYRQNGF [PCDHGA1_Y890_V894G_YF]
c-Abl kinase domain; [3]
  Screen: -1.497

## QKKPCYEIRWK [PDGFRB_Y562_R561C]
c-Abl kinase domain; [3]
  Screen: 0.01021

## QLQVFYATRDQ [MIPEP_Y579_L582R]
EPHB2 kinase domain
  Screen: -1.278
c-Src kinase domain; [2]
  Screen: -2.05
Fer kinase domain
  Screen: -2.265

## QPRDIYHQTWA [GBA_Y244_G241R]
c-Src kinase domain; [2]
  Screen: -0.7899

## QRVLLYVQRET [GRHL3_Y518_R520Q]
c-Abl kinase domain; [3]
  Screen: -0.6307

## REETTYLPLTS [ICAM3_Y527_S525T]
c-Src kinase domain; [2]
  Screen: -0.5459

## RGVVMYTSKDR [ZG16B_Y136_M133V]
c-Abl kinase domain; [4]
  Screen: -3.766

## RKETFYILSCR [GUCY2C_Y681_T682I]
c-Src kinase domain; [2]
  Screen: -2.18

## RVSSVYTRSTG [CCR5_Y339_A335V]
c-Abl kinase domain; [3]
  Screen: 1.763

## SEHLIYLEFKS [RASGRP1_Y215_T214I]
c-Src kinase domain; [1]
  Screen: 0.01051
c-Abl kinase domain; [3]
  Screen: 0.2716
EPHB1 kinase domain
  Screen: 0.7598

## SENFTYIWWLN [PSG4_Y271_K267E_YF]
c-Abl kinase domain; [3]
  Screen: 0.9727

## SFSGEYGSGGG [ZG16_Y30_G32S_YF]
c-Abl kinase domain; [4]
  Screen: -2.078

## SKLTIYDGRPS [MTM1_Y277_A279G]
c-Src kinase domain; [2]
  Screen: -1.75

## SLDLSYFHTSS [EMD_Y181_P183H_YF]
c-Abl kinase domain; [3]
  Screen: -1.954

## SLIDMYSEVLA [OPA1_Y268_D273A]
c-Src kinase domain; [1]
  Screen: 1.458

## TKDTFYQQPMF [GBA_Y451_K452Q]
EPHB2 kinase domain
  Screen: 1.843
Fer kinase domain
  Screen: 2.731

## TKGNEYVFRVA [TTN_Y30829_E30825K]
c-Abl kinase domain; [4]
  Screen: -2.941

## TKLKDYFIFNK [CCDC42_Y149_A144T_YF]
c-Abl kinase domain; [3]
  Screen: -0.5052

## TNFSLYLRSLE [MTM1_Y71_R69S_YF]
c-Abl kinase domain; [3]
  Screen: -0.4541

## VKANTYEKFWL [GATM_Y100_P105L_YF]
c-Src kinase domain; [2]
  Screen: -1.276
Fer kinase domain
  Screen: 2.288

## VKFGAYINDFK [GLB1_Y488_N484K_YF]
c-Abl kinase domain; [3]
  Screen: -0.5379

## VQEDIYDEFVV [ALDH2_Y332_E337V]
c-Src kinase domain; [2]
  Screen: 0.8946
Fer kinase domain
  Screen: 3.107

## VVQGLYKSMRK [KBTBD2_Y250_P254R]
c-Abl kinase domain; [3]
  Screen: 0.59
